{"source": "paper PMC7998273", "about": "“Zein Nanoparticles Improve the Oral Bioavailability of Curcumin in Wistar Rats” (Pharmaceutics, 2021)", "origin": "cited, not measured here", "design": "method as in PMID 17400527", "conditions": "orally administered"}
{"smiles": "COc1cc(/C=C/C(=O)CC(=O)/C=C/c2ccc(O)c(OC)c2)ccc1O", "note": "[CC, curcumin]", "values": [{"measurement": "Oral bioavailability", "result": "ca. 1%"}]}
